PubChem BioAssay AID330 (DTP/NCI, 2004)
“And” between values parts separate entries of the source, which are not always exact repeats. Equal entries are not always repeated. Inconclusive results and toxic doses are left out. The calls were made as follows: active = survival T/C of 150% or more; inactive = T/C below 125% in these data.

System: P388 leukemia ip, CD2F1 mice, survival T/C
Experiment: NCI In Vivo Anticancer Drug Screen. Data for tumor model P388 Leukemia (intraperitoneal) in CD2F1 (CDF1) mice
Conditions: endpoint: median survival time, higher = longer survival
In short: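 Mice carrying the transplanted tumor received test compound or vehicle. Survival was recorded in each group, and the value is the treated-group measurement divided by that of the vehicle-treated control group.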

[1] = dose: 100.0 mg/kg/injection, schedule: Q04DX003 (ip), vehicle: saline with Tween-80
[2] = dose: 200.0 mg/kg/injection, schedule: Q04DX003 (ip), vehicle: saline with Tween-80
[3] = dose: 400.0 mg/kg/injection, schedule: Q04DX003 (ip), vehicle: saline with Tween-80
[4] = dose: 60.0 mg/kg/injection, schedule: Q01DX005 (ip), vehicle: saline with Tween-80
[5] = dose: 25.0 mg/kg/injection, schedule: Q01DX005 (ip), vehicle: saline with Tween-80
[6] = dose: 50.0 mg/kg/injection, schedule: Q01DX005 (ip), vehicle: saline with Tween-80
[7] = dose: 100.0 mg/kg/injection, schedule: Q04DX002 (ip), vehicle: saline
[8] = dose: 200.0 mg/kg/injection, schedule: Q04DX002 (ip), vehicle: saline
[9] = dose: 400.0 mg/kg/injection, schedule: Q04DX002 (ip), vehicle: saline

Measured: T/C

Clc1ccc(N=c2ccn3ccccc3c2)cc1Cl
inactive: dose: 12.5 mg/kg/injection, schedule: Q01DX009 (ip), vehicle: saline with Tween-80 94 % of control | dose: 25.0 mg/kg/injection, schedule: Q01DX009 (ip), vehicle: saline with Tween-80 94 % of control | dose: 50.0 mg/kg/injection, schedule: Q01DX009 (ip), vehicle: saline with Tween-80 97 % of control

Br/C(C=Nc1ccccc1)=C\Nc1ccccc1
inactive: [1] 118 % of control | [2] 109 % of control | [3] 104 % of control

CC#CC#CC#C/C=C\CCC(=O)CC
inactive: dose: 12.5 mg/kg/injection, schedule: Q01DX009 (ip), vehicle: Klucel (hydroxypropylcellulose) (HPC) 95 % of control | dose: 25.0 mg/kg/injection, schedule: Q01DX009 (ip), vehicle: Klucel (hydroxypropylcellulose) (HPC) 95 % of control | dose: 50.0 mg/kg/injection, schedule: Q01DX009 (ip), vehicle: Klucel (hydroxypropylcellulose) (HPC) 95 % of control | dose: 100.0 mg/kg/injection, schedule: Q01DX009 (ip), vehicle: Klucel (hydroxypropylcellulose) (HPC) 100 % of control

CCCCn1cnc2c(SC)ncnc21
inactive: dose: 22.0 mg/kg/injection, schedule: Q04DX003 (ip), vehicle: saline with Tween-80 110 % of control | dose: 33.0 mg/kg/injection, schedule: Q04DX003 (ip), vehicle: saline with Tween-80 110 % of control | dose: 50.0 mg/kg/injection, schedule: Q04DX003 (ip), vehicle: saline with Tween-80 115 % of control | dose: 75.0 mg/kg/injection, schedule: Q04DX003 (ip), vehicle: saline with Tween-80 110 % of control

O=C1C2CCSCN2C(=O)N1c1ccccc1 (configuration not stated)
inactive: [4] 95 % of control | dose: 120.0 mg/kg/injection, schedule: Q01DX005 (ip), vehicle: saline with Tween-80 103 % of control | dose: 240.0 mg/kg/injection, schedule: Q01DX005 (ip), vehicle: saline with Tween-80 95 % of control

COc1cc2c(cc1I)-c1c(cc(OC)c(OC)c1OC)CC[C@@H]2NC(C)=O
inactive: dose: 88.0 mg/kg/injection, schedule: Q01DX009 (ip), vehicle: saline with Tween-80 118 % of control | dose: 100.0 mg/kg/injection, schedule: Q01DX009 (ip), vehicle: saline sonified 95 % of control | dose: 100.0 mg/kg/injection, schedule: Q01DX009 (ip), vehicle: saline with Tween-80 95 % of control | [1] 100 % of control | dose: 200.0 mg/kg/injection, schedule: Q01DX009 (ip), vehicle: saline with Tween-80 100 % of control | [2] 100 % of control | dose: 400.0 mg/kg/injection, schedule: Q01DX009 (ip), vehicle: saline with Tween-80 104 % of control | [3] 90 % of control

CCc1ccc(/C=C/c2ccc(O)c3ncccc23)[n+](C)c1
inactive: dose: 4.0 mg/kg/injection, schedule: Q04DX003 (ip), vehicle: saline 100 % of control | dose: 8.0 mg/kg/injection, schedule: Q04DX003 (ip), vehicle: saline 104 % of control | dose: 16.0 mg/kg/injection, schedule: Q04DX003 (ip), vehicle: saline 118 % of control

CS(=O)(=O)OCCCCOS(C)(=O)=O
inactive: dose: 3.75 mg/kg/injection, schedule: Q01DX009 (ip), vehicle: saline with Tween-80 90 % of control | dose: 3.75 mg/kg/injection, schedule: Q03HX008 (ip), vehicle: saline with Tween-80 104 % of control | dose: 3.75 mg/kg/injection, schedule: Q03HX016 (ip), vehicle: saline with Tween-80 100 % of control | dose: 3.75 mg/kg/injection, schedule: Q03HX024 (ip), vehicle: saline with Tween-80 100 % of control | dose: 7.5 mg/kg/injection, schedule: Q03HX008 (ip), vehicle: saline with Tween-80 109 % of control | dose: 7.5 mg/kg/injection, schedule: Q03HX016 (ip), vehicle: saline with Tween-80 100 % of control | dose: 7.5 mg/kg/injection, schedule: Q03HX024 (ip), vehicle: saline with Tween-80 100 % of control | dose: 15.0 mg/kg/injection, schedule: Q01DX009 (ip), vehicle: saline with Tween-80 90 % of control | dose: 15.0 mg/kg/injection, schedule: Q01DX009 (oral), vehicle: saline with Tween-80 104 % of control | dose: 15.0 mg/kg/injection, schedule: Q03HX008 (ip), vehicle: saline with Tween-80 109 % of control | dose: 15.0 mg/kg/injection, schedule: Q03HX016 (ip), vehicle: saline with Tween-80 109 % of control | dose: 15.0 mg/kg/injection, schedule: Q03HX024 (ip), vehicle: saline with Tween-80 113 % of control | [5] 108 % of control | dose: 30.0 mg/kg/injection, schedule: Q01DX001 (ip), vehicle: saline with Tween-80 110 % of control | dose: 30.0 mg/kg/injection, schedule: Q01DX009 (ip), vehicle: saline with Tween-80 100 % of control | dose: 30.0 mg/kg/injection, schedule: Q01DX009 (oral), vehicle: saline with Tween-80 104 % of control | dose: 30.0 mg/kg/injection, schedule: Q03HX008 (ip), vehicle: saline with Tween-80 109 % of control | dose: 30.0 mg/kg/injection, schedule: Q03HX016 (ip), vehicle: saline with Tween-80 100 % of control | dose: 30.0 mg/kg/injection, schedule: Q04DX003 (ip), vehicle: saline with Tween-80 90 % of control | dose: 30.0 mg/kg/injection, schedule: Q08DX002 (ip), vehicle: saline with Tween-80 105 % of control | [6] 113 % of control and 93 % of control | dose: 60.0 mg/kg/injection, schedule: Q01DX001 (ip), vehicle: saline with Tween-80 110 % of control | dose: 60.0 mg/kg/injection, schedule: Q01DX001 (oral), vehicle: saline with Tween-80 100 % of control | dose: 60.0 mg/kg/injection, schedule: Q08DX002 (ip), vehicle: saline with Tween-80 100 % of control | dose: 240.0 mg/kg/injection, schedule: Q08DX002 (ip), vehicle: saline with Tween-80 100 % of control

CO/C=C1\CC(=O)N(C)C1=O
inactive: [1] 110 % of control | [2] 97 % of control | [3] 97 % of control

S=C1N(c2ccccc2)CCN1c1ccccc1
inactive: dose: 60.0 mg/kg/injection, schedule: Q01DX005 (ip), vehicle: Klucel (hydroxypropylcellulose) (HPC) 101 % of control | dose: 120.0 mg/kg/injection, schedule: Q01DX005 (ip), vehicle: Klucel (hydroxypropylcellulose) (HPC) 100 % of control | dose: 240.0 mg/kg/injection, schedule: Q01DX005 (ip), vehicle: Klucel (hydroxypropylcellulose) (HPC) 94 % of control

Cc1ccccc1C1NC(c2ccccc2C)C2CCCC1C2=O (configuration not stated)
inactive: dose: 100.0 mg/kg/injection, schedule: Q04DX003 (ip), vehicle: saline 89 % of control | dose: 200.0 mg/kg/injection, schedule: Q04DX003 (ip), vehicle: saline 96 % of control | dose: 400.0 mg/kg/injection, schedule: Q04DX003 (ip), vehicle: saline 93 % of control

N#CCNCC#N
inactive: [7] 102 % of control | [8] 103 % of control | [9] 102 % of control

CCOP(=S)(OCC)Oc1ccccc1
inactive: [7] 104 % of control | [8] 113 % of control | [9] 115 % of control

CC(C)C(NC(=O)C(C)N(C)C)C(=O)N1CCC2Oc3ccc(cc3)/C=C\NC(=O)C(Cc3ccccc3)NC(=O)C21 (configuration not stated)
inactive: [1] 97 % of control | [2] 95 % of control | [3] 96 % of control

O=C(O)c1cc(Br)cc(Br)c1O.O=C(O)c1cc(Br)cc(Br)c1O.[Cu]
inactive: dose: 15.0 mg/kg/injection, schedule: Q01DX005 (ip), vehicle: saline with Tween-80 92 % of control | dose: 30.0 mg/kg/injection, schedule: Q01DX005 (ip), vehicle: saline with Tween-80 94 % of control | [4] 101 % of control and 92 % of control

O=C(NP1(=O)NCc2ccccc2CN1)OC1CCCCC1
inactive: dose: 6.25 mg/kg/injection, schedule: Q01DX005 (ip), vehicle: Klucel (hydroxypropylcellulose) (HPC) 94 % of control | dose: 12.5 mg/kg/injection, schedule: Q01DX005 (ip), vehicle: Klucel (hydroxypropylcellulose) (HPC) 99 % of control | dose: 25.0 mg/kg/injection, schedule: Q01DX005 (ip), vehicle: Klucel (hydroxypropylcellulose) (HPC) 97 % of control

O=[N+]([O-])c1cccn2nc(COCCO)nc12
inactive: dose: 12.5 mg/kg/injection, schedule: Q01DX005 (ip), vehicle: saline with Tween-80 97 % of control | [5] 94 % of control | [6] 97 % of control | dose: 100.0 mg/kg/injection, schedule: Q01DX005 (ip), vehicle: saline 113 % of control | dose: 200.0 mg/kg/injection, schedule: Q01DX005 (ip), vehicle: saline 109 % of control
